From patent US20030215462A1, “Use of UGT inhibitors to increase bioavailability” (priority 2001, published 2003)

Key:
UGT1A10 [1] = molecular target: T1, UGT1A10 (Homo sapiens, UniProt Q9HAW8); test: in vitro; conditions: pH 7.5, % of control metabolism
T1 sequence (Q9HAW8 26-530): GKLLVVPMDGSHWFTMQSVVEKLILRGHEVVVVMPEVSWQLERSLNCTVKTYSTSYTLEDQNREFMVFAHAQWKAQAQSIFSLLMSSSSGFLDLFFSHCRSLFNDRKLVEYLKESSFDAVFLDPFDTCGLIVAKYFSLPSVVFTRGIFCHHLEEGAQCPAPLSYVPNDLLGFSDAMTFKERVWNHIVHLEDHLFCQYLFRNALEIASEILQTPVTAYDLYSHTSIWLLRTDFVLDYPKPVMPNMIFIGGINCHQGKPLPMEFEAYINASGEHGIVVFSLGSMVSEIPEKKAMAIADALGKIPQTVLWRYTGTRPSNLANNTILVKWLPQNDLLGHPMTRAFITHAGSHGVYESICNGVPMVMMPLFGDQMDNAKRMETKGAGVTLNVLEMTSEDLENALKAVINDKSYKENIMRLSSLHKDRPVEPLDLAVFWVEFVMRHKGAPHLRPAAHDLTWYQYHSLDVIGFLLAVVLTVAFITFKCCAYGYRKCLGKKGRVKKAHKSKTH
Procedure: Compounds were eluted using a binary solvent gradient system. Solvent A was water brought to pH 8 with NH4OH. Solvent B was methanol. Solvent flow rate was 1 ml/min and the column temperature was maintained at 50° C. Detection was at 280 nm. […] The system was then returned to the initial conditions and equilibrated for 3 min.

UGT1A6 = molecular target: T2, UGT1A6 (Homo sapiens, UniProt P19224); test: Substrate glucuronidation by recombinant UGT1A6; conditions: for 7-HFC glucuronidation rate: 7-HFC 50 μM
T2 sequence (P19224 27-532): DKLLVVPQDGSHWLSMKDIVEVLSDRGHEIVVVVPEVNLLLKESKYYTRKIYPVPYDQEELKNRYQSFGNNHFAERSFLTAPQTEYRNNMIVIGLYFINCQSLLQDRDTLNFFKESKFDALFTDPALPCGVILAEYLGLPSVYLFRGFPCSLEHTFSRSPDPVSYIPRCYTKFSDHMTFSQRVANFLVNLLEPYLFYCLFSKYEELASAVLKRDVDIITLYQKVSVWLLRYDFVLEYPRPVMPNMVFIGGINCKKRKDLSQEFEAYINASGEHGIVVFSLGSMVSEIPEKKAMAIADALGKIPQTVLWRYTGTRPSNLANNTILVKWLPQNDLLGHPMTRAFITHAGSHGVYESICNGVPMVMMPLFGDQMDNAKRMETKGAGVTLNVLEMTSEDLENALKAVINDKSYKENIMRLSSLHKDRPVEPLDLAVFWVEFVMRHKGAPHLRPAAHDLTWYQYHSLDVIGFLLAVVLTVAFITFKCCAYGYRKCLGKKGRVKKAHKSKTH

UGT1A10 [2] = molecular target: T1, UGT1A10; test: Substrate glucuronidation by recombinant UGT1A10; conditions: 7-HFC 50 μM
[3] = system: pooled human jejunum microsomes; test: Glucuronidation of UGT substrates by pooled human jejunum microsomes; conditions: human jejunum microsomes (table footnote)
[4] = system: UGT enzymes of human liver microsomes; test: Inhibition of 2ME2 glucuronidation (MG1, MG2) in human liver microsomes; format: biochemical; conditions: liver 062101, 2ME2 50 μM
From the text: Compounds were eluted using a binary solvent gradient system where solvent A was dilute phosphoric acid (pH 3) and solvent B was 80:20 acetonitrile-methanol. […] Detection was at 280 nm.

[5] = system: UGT enzymes of human liver microsomes; test: Kinetic and Ki studies of inhibitors of 7-HFC glucuronidation in human liver microsomes; format: biochemical; conditions: for Inhibition Type: highest inhibitor concentration only; for Ki: highest inhibitor concentration only (tannic acid 0, 25; octyl gallate and gallocatechin gallate 0, 200 μM), read-out: Ki (apparent), 7-HFC glucuronidation
UGT1A10 [6] = molecular target: T1, UGT1A10
UGT2B7 = molecular target: T3, UGT2B7 (Homo sapiens, UniProt P16662); conditions: 30 min, 100 μM, pH 7.5
T3 sequence (P16662 24-529): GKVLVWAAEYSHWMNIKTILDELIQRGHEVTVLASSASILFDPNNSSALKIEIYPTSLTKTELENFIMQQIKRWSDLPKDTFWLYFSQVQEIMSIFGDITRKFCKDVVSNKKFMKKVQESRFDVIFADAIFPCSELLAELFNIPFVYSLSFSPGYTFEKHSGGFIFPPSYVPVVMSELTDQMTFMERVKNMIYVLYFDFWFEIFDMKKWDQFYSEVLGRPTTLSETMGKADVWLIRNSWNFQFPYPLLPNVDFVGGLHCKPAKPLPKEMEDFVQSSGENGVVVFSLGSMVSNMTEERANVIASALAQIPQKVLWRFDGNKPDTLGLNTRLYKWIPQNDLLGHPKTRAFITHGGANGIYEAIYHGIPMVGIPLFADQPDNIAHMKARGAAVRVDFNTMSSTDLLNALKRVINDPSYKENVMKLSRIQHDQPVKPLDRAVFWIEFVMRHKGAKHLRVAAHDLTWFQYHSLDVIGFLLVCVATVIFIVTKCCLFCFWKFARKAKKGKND

[7] = system: UGT enzymes of human liver microsomes; test: Inhibition of labetalol glucuronidation (LG1, LG2) in human liver microsomes; format: biochemical; conditions: labetalol 50 μM
[8] = system: UGT enzymes of pooled human jejunum microsomes; test: Inhibition of zidovudine glucuronidation in pooled human jejunum microsomes; format: biochemical; conditions: inhibitor 50 μM
Procedure: Increasing the microsomal protein concentration to 1 mg/ml and extending the incubation time to 60 min provided meaningful metabolite levels for inhibition studies.

C=CCc1ccc(O)c(OC)c1 [Eugenol]
activity at 15 min, 50 µM (UGT1A10 [1]; raloxifene G1): 85% | activity at 15 min, 50 µM (UGT1A10 [1]; raloxifene G2): 81%

O=c1cc(C(F)(F)F)c2ccc(O)cc2o1 [7-HFC, 7-hydroxy-4-(trifluoromethyl)coumarin]
7-HFC glucuronidation rate in Panvera Bacculosomes as % of Gentest Supersomes (UGT1A6; UGT1A6): 31% | 7-HFC glucuronidation rate (UGT1A6; UGT1A6 Bacculosomes 250 μg/ml): 1528 ± 34 pmol/min/mg protein | 7-HFC glucuronidation rate (UGT1A6; UGT1A6 Supersomes 250 μg/ml): 4904 ± 368 pmol/min/mg protein | 7-HFC glucuronidation rate (UGT1A10 [2]; UGT1A10 Bacculosomes 250 μg/ml): 553 ± 40 pmol/min/mg protein | 7-HFC glucuronidation rate (UGT1A10 [2]; UGT1A10 Supersomes 250 μg/ml): 460 ± 2 pmol/min/mg protein | 7-HFC metabolism rate [3]: 6,829 ± 61 pmol/min/mg

CCCOC(=O)c1cc(O)c(O)c(O)c1 [Propyl gallate]
activity at 15 min, 50 µM (UGT1A10 [1]; raloxifene G1): 80% | activity at 15 min, 50 µM (UGT1A10 [1]; raloxifene G2): 72%

O=C(O[C@@H]1Cc2c(O)cc(O)cc2O[C@H]1c1cc(O)c(O)c(O)c1)c1cc(O)c(O)c(O)c1 [Gallocatechin gallate]
residual metabolism (% of control), 2ME2 MG1 ([4]; inhibitor 10 μM): 56 (1) % | residual metabolism (% of control), 2ME2 MG2 ([4]; inhibitor 10 μM): 84 (1) % | Inhibition Type [5]: Non-competitive | Ki [5]: 40 ± 3 µM | Inhibition Type ([5]; listed as gallocatechin gallate): strictly non-competitive

CC(CCc1ccccc1)NCC(O)c1ccc(O)c(C(N)=O)c1 (stereo not drawn) [Labetalol, labetalol]
labetalol metabolism, in words (UGT1A10 [6]): No detectable metabolism was observed | LG1/LG2 (UGT2B7): 12 | labetalol metabolite LG1, peak area normalized to internal standard (UGT2B7): 993 (52) | labetalol metabolite LG2, peak area normalized to internal standard (UGT2B7): 81 (3)

O=C(O)c1cc(-c2ccc(F)cc2F)ccc1O [Diflunisal, reference compound]
residual metabolism (percentage of control), labetalol LG1 ([7]; inhibitor 500 μM): 43 (5) % | residual metabolism (percentage of control), labetalol LG2 ([7]; inhibitor 500 μM): 35 (2) % | activity at 15 min, 50 µM (UGT1A10 [1]; raloxifene G1): 90% | activity at 15 min, 50 µM (UGT1A10 [1]; raloxifene G2): 90%

CCCCCCCCOC(=O)c1cc(O)c(O)c(O)c1 [Octyl gallate]
Inhibition Type [5]: strictly non-competitive | Ki [5]: 16 ± 2 µM

O=C(OC[C@H]1O[C@@H](OC(=O)c2cc(O)c(O)c(OC(=O)c3cc(O)c(O)c(O)c3)c2)[C@H](OC(=O)c2cc(O)c(O)c(OC(=O)c3cc(O)c(O)c(O)c3)c2)[C@@H](OC(=O)c2cc(O)c(O)c(OC(=O)c3cc(O)c(O)c(O)c3)c2)[C@@H]1OC(=O)c1cc(O)c(O)c(OC(=O)c2cc(O)c(O)c(O)c2)c1)c1cc(O)c(O)c(OC(=O)c2cc(O)c(O)c(O)c2)c1 [Tannic acid]
residual metabolism (percentage of control), labetalol LG1 ([7]; inhibitor 10 μM): 91 (2) % | residual metabolism (percentage of control), labetalol LG2 ([7]; inhibitor 10 μM): 88 (4) % | residual metabolism (percentage of control), labetalol LG1 ([7]; inhibitor 25 μM): 56 (2) % | residual metabolism (percentage of control), labetalol LG2 ([7]; inhibitor 25 μM): 51 (6) % | residual metabolism (% of control), 2ME2 MG1 ([4]; inhibitor 2 μM): 62 (2) % | residual metabolism (% of control), 2ME2 MG2 ([4]; inhibitor 2 μM): 105 (3) % | residual metabolism (% of control), 2ME2 MG1 ([4]; inhibitor 5 μM): 39 (0) % | residual metabolism (% of control), 2ME2 MG2 ([4]; inhibitor 5 μM): 91 (5) % | residual metabolism (% of control), 2ME2 MG1 ([4]; inhibitor 10 μM): 24 (1) % | residual metabolism (% of control), 2ME2 MG2 ([4]; inhibitor 10 μM): 69 (6) % | Inhibition Type [5]: Non-competitive | Ki [5]: 5.4 ± 0.4 µM

O=C(O[C@@H]1Cc2c(O)cc(O)cc2O[C@@H]1c1ccc(O)c(O)c1)c1cc(O)c(O)c(O)c1 [Epicatechin gallate]
activity at 15 min, 50 µM (UGT1A10 [1]; raloxifene G1): 54% | activity at 15 min, 50 µM (UGT1A10 [1]; raloxifene G2): 51%

CC/C(=C(/CC)c1ccc(O)cc1)c1ccc(O)cc1 [Diethylstilbestrol, reference compound]
residual metabolism (percentage of control), labetalol LG1 ([7]; inhibitor 10 μM): 66 (6) % | residual metabolism (percentage of control), labetalol LG2 ([7]; inhibitor 10 μM): 68 (7) % | residual metabolism (percentage of control), labetalol LG1 ([7]; inhibitor 25 μM): 39 (1) % | residual metabolism (percentage of control), labetalol LG2 ([7]; inhibitor 25 μM): 45 (3) % | residual metabolism (% of control), 2ME2 MG1 ([4]; inhibitor 1 μM): 88 (2) % | residual metabolism (% of control), 2ME2 MG2 ([4]; inhibitor 1 μM): 335 (5) % | residual metabolism (% of control), 2ME2 MG1 ([4]; inhibitor 10 μM): 72 (2) % | residual metabolism (% of control), 2ME2 MG2 ([4]; inhibitor 10 μM): 632 (4) % | residual metabolism (percentage of control), zidovudine [8]: 42 (3) %

O=c1c(O)c(-c2ccc(O)c(O)c2)oc2cc(O)cc(O)c12 [Quercetin]
residual metabolism (percentage of control), labetalol LG1 ([7]; inhibitor 500 μM): 36 (3) % | residual metabolism (percentage of control), labetalol LG2 ([7]; inhibitor 500 μM): 23 (1) % | activity at 15 min, 25 µM (UGT1A10 [1]; raloxifene G1): 80% | activity at 15 min, 50 µM (UGT1A10 [1]; raloxifene G1): 55% | activity at 15 min, 25 µM (UGT1A10 [1]; raloxifene G2): 80% | activity at 15 min, 50 µM (UGT1A10 [1]; raloxifene G2): 48%
